According to ChEMBL document CHEMBL4507268 (2021):

Columns and labels:
[1] = biological target: Serine/threonine-protein kinase PAK 6 (Homo sapiens) (UniProt Q9NQU5); conditions: Compound concentration 1000.0 nM
[2] = biological target: T1, Serine/threonine-protein kinase ULK3 (Homo sapiens) (UniProt Q6PHR2); conditions: Compound concentration 1000.0 nM
T1 sequence (whole entry): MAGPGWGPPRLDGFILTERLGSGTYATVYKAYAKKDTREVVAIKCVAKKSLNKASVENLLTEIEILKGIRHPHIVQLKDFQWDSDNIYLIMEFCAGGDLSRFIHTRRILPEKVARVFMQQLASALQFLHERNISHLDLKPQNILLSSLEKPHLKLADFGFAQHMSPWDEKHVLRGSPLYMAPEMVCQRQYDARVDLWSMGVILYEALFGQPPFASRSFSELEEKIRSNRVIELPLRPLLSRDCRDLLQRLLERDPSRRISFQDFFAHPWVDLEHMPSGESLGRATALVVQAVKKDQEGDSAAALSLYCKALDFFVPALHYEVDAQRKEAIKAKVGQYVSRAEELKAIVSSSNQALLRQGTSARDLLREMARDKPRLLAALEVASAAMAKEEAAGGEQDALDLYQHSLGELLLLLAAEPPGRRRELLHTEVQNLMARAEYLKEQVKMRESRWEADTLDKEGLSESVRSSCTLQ

[3] = biological target: Calcium/calmodulin-dependent protein kinase kinase 1 (Homo sapiens) (UniProt Q8N5S9); conditions: Compound concentration 1000.0 nM
Chain of Calcium/calmodulin-dependent protein kinase kinase 1 (Homo sapiens) (Q8N5S9 whole entry, looked up): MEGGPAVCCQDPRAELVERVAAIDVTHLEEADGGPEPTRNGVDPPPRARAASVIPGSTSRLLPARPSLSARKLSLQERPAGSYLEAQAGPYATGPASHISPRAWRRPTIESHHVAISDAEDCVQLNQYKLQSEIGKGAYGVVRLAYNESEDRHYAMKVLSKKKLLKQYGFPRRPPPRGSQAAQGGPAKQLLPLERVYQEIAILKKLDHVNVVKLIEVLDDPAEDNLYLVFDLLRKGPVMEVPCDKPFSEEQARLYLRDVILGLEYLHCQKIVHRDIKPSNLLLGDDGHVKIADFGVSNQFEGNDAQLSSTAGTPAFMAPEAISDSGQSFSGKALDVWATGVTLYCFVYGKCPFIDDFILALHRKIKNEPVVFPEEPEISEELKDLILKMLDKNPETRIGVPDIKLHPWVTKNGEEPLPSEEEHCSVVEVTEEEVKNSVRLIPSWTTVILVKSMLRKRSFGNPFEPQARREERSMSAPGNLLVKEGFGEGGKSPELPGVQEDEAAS

[4] = biological target: GABA-A receptor; anion channel (Rattus norvegicus) (UniProt O09028+P15431+P18506+P18508+P19969+P20236+P23574+P23576+P28471+P28473+P30191+P62813+P63079+P63138+Q91ZM7+Q9ES14); conditions: Compound concentration 10.0 uM
SNU-449 = assay: Proliferation assay: SNU-449 (hepatocellular carcinoma); type: functional, cell-based; conditions: Homo sapiens
[5] = biological target: T2, Serine/threonine-protein kinase Chk1 (Homo sapiens) (UniProt O14757); conditions: Compound concentration 1000.0 nM
T2 sequence (whole entry): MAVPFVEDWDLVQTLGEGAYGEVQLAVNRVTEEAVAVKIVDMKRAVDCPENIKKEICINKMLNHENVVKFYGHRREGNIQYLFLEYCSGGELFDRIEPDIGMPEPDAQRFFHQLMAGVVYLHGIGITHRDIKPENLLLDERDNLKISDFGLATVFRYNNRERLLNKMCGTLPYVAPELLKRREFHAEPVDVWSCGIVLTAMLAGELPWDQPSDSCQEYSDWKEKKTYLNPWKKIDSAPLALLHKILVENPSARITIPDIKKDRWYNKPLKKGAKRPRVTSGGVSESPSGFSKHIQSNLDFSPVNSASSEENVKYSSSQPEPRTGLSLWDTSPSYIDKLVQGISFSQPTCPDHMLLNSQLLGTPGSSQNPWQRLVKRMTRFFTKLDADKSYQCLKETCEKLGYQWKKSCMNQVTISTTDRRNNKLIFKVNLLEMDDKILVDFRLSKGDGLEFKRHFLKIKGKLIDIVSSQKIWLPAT

[6] = biological target: Rho-associated protein kinase 1 (Homo sapiens) (UniProt Q13464); conditions: Compound concentration 1000.0 nM
Chain of Rho-associated protein kinase 1 (Homo sapiens) (Q13464 2-1354 limits assumed): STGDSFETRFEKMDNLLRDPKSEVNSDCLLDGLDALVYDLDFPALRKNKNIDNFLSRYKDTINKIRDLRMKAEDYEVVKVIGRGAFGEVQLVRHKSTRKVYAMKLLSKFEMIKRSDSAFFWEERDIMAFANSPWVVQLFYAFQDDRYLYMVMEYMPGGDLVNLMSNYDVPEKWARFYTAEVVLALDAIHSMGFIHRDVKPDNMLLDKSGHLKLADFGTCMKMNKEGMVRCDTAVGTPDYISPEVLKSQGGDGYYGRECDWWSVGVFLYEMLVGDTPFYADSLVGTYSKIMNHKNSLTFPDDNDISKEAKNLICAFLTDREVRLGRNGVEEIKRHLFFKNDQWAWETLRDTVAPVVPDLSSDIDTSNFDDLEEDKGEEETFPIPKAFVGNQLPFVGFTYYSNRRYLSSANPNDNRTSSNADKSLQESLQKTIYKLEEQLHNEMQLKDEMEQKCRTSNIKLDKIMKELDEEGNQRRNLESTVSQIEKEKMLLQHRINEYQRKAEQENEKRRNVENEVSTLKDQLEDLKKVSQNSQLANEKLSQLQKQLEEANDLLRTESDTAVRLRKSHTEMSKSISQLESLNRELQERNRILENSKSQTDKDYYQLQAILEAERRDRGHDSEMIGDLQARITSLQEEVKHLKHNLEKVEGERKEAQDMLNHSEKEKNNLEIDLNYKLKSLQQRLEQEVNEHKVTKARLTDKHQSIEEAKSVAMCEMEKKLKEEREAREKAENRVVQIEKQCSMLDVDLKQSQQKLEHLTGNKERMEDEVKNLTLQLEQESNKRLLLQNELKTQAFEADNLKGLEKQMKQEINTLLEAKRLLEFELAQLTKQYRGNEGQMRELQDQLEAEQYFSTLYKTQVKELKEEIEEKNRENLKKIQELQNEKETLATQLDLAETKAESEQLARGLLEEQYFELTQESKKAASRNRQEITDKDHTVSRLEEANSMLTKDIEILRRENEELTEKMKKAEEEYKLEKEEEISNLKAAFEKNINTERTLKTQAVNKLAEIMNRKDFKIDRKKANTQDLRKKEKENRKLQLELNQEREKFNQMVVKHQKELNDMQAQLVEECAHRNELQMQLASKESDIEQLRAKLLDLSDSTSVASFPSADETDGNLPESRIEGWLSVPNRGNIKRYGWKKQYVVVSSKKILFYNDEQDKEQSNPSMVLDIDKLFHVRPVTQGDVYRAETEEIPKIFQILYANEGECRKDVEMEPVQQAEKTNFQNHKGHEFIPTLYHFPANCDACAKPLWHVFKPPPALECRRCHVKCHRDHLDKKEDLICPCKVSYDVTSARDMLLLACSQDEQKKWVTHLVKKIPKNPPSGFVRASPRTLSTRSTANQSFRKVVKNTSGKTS

[7] = biological target: T3, Rhodopsin kinase GRK7 (Homo sapiens) (UniProt Q8WTQ7); conditions: Compound concentration 1000.0 nM
T3 sequence (whole entry): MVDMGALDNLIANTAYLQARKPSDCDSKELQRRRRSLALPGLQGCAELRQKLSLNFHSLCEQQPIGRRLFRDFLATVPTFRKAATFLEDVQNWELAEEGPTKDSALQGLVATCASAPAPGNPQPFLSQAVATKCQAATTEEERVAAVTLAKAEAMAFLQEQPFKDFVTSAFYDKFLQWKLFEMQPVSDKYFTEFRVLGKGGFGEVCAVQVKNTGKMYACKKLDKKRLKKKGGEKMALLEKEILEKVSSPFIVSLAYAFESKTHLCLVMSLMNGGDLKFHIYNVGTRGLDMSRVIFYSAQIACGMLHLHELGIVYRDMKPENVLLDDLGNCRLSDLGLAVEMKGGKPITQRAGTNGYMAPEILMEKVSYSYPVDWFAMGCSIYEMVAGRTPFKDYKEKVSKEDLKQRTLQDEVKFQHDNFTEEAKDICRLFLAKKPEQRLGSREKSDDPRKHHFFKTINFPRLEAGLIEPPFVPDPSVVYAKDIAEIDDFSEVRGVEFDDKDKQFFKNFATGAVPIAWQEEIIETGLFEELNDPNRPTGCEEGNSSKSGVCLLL

[8] = biological target: Dual specificity tyrosine-phosphorylation-regulated kinase 1B (Homo sapiens) (UniProt Q9Y463); conditions: Compound concentration 1000.0 nM
Chain of Dual specificity tyrosine-phosphorylation-regulated kinase 1B (Homo sapiens) (Q9Y463 whole entry, looked up): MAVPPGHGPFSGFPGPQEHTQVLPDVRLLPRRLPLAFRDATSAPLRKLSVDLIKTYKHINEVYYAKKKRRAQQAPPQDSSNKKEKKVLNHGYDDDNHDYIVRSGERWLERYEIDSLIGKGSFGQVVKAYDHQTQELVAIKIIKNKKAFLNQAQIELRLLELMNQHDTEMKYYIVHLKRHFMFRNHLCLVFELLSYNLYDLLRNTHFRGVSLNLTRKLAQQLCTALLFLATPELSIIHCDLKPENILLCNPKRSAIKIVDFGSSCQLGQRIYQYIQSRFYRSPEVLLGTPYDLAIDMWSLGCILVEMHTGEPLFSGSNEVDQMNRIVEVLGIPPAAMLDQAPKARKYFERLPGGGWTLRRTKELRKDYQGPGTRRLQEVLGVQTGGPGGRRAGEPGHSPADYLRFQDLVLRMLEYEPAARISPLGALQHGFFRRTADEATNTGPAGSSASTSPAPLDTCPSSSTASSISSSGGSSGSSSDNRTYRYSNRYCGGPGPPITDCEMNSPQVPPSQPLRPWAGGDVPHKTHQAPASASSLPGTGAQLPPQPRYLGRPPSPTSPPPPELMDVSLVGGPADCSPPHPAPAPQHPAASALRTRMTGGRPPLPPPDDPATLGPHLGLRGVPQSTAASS

[9] = biological target: Sigma non-opioid intracellular receptor 1 (Homo sapiens, UniProt Q99720); assay: GPCRScan assay: inhibition of Sigma 1; design: radioligand conc. used [nm] 4.0 – 5.0, parental cells HEKT
Chain of Sigma non-opioid intracellular receptor 1 (Q99720 whole entry): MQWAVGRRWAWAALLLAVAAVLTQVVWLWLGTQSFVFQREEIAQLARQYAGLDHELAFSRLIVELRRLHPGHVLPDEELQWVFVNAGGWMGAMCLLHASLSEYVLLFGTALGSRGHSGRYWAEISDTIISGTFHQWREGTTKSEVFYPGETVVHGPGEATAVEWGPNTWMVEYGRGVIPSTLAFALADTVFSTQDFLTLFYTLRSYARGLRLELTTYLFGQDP

[10] = biological target: Cyclin-dependent kinase 2 (Homo sapiens) (UniProt P24941); conditions: Compound concentration 1000.0 nM
[11] = test system: Mast/stem cell growth factor receptor Kit (Homo sapiens), P10721 [V559D,V654A]; conditions: Compound concentration 1000.0 nM
[12] = biological target: NT-3 growth factor receptor (Homo sapiens) (UniProt Q16288); conditions: Compound concentration 1000.0 nM
Chain of NT-3 growth factor receptor (Homo sapiens) (Q16288 32-839 limits assumed): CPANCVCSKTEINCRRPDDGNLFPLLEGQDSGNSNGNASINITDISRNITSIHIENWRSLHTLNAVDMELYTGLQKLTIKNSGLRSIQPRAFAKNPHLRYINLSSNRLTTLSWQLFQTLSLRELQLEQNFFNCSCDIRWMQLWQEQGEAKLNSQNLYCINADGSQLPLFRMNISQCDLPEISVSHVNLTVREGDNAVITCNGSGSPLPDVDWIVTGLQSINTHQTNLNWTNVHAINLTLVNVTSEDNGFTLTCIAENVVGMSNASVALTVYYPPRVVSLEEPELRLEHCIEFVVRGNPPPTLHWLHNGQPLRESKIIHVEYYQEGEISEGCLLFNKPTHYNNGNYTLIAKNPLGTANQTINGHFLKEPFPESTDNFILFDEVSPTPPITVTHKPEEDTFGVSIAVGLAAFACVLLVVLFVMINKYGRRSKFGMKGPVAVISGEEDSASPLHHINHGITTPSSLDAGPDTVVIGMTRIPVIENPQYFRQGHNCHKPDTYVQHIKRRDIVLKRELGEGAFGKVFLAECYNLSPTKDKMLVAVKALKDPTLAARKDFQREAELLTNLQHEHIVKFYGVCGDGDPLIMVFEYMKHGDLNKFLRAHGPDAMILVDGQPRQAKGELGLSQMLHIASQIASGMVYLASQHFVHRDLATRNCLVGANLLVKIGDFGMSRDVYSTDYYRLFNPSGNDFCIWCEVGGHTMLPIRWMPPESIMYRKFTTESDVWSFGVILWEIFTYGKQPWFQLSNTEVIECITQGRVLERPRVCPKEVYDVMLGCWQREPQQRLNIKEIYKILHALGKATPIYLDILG

[13] = biological target: Dual specificity protein kinase CLK1 (Homo sapiens) (UniProt P49759); conditions: Compound concentration 1000.0 nM
[14] = biological target: Interleukin-1 receptor-associated kinase 1 (Homo sapiens) (UniProt P51617); conditions: Compound concentration 1000.0 nM
Chain of Interleukin-1 receptor-associated kinase 1 (Homo sapiens) (P51617 whole entry, looked up): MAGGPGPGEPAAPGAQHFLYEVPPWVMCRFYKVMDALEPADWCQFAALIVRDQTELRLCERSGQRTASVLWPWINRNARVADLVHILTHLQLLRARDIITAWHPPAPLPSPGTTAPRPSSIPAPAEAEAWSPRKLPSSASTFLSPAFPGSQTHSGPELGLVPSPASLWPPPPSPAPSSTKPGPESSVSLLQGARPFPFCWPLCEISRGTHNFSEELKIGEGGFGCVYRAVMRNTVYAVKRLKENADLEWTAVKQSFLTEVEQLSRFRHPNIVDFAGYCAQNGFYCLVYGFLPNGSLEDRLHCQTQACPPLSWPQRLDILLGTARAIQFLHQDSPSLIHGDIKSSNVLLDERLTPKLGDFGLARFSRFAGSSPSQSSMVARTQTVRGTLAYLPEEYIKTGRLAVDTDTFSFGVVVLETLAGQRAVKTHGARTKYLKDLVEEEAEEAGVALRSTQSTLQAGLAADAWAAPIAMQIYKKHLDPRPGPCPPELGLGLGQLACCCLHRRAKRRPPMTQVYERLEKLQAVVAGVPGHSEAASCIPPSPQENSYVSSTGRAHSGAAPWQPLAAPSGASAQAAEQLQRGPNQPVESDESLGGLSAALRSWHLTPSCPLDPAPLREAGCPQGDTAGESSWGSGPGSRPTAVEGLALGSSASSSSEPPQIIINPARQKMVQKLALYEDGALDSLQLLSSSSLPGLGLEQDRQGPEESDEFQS

Chain of Serine/threonine-protein kinase PAK 6 (Homo sapiens) (Q9NQU5 whole entry, looked up): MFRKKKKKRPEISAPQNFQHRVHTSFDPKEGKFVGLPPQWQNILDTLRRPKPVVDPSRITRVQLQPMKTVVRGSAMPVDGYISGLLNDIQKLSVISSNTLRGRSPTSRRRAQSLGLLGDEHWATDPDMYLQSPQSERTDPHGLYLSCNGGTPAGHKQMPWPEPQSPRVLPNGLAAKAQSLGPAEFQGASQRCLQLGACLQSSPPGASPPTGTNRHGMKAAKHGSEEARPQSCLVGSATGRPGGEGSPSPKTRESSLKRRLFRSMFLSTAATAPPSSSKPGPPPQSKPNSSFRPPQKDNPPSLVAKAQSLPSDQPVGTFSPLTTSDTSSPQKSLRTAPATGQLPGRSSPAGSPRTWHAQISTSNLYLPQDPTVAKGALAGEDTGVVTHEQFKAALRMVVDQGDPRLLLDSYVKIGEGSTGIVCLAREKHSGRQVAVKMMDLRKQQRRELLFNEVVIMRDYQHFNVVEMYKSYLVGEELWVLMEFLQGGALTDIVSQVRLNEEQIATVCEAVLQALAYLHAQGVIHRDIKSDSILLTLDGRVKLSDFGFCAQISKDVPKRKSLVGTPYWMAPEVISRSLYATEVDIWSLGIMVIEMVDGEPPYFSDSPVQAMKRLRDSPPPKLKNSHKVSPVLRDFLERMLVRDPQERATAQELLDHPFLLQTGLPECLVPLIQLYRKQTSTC

CN1CCN(c2cnc3c(C4CCN(C(=O)c5ccc(OC(F)(F)F)cc5N)CC4)ncnc3c2)CC1 [BAY-885]
inactive: residual activity [1] 100% | residual activity [2] 100% | residual activity [3] 100% | inhibition [4] 0.38% | residual activity [5] 100% | residual activity [6] 100% | residual activity [7] 87% | residual activity [8] 54% | residual activity [10] 100% | residual activity [11] 84% | residual activity [12] 100% | residual activity [13] 100% | residual activity [14] 100%
2500 nM: Ki [9]
> 30000 nM (not active): IC50 (SNU-449)

Cc1nc(C2CCN(C(=O)c3ccc(OC(F)(F)F)cc3N)CC2)c2ncc(N3CCN(C)CC3)cc2n1 [BAY-693]
active: residual activity [2] 46%
19500 nM (not active): IC50 (SNU-449)
2370 nM: Ki [9]
inactive: residual activity [1] 93% | residual activity [3] 100% | inhibition [4] -1.64% | residual activity [5] 100% | residual activity [6] 100% | residual activity [7] 81% | residual activity [8] 61% | residual activity [10] 87% | residual activity [11] 100% | residual activity [12] 97% | residual activity [13] 100% | residual activity [14] 100%
